assay: RP, Thermo Scientific Acclaim RSLC 120 C18, 100 × 2.1 mm, 2.2 µm, 30 °C, 0.2 mL/min, estimated dead time 1.1 min; A: 90% water + 10% methanol + 0.01% formic acid + 5 mM ammonium formate, pH 3.61; B: methanol + 0.01% formic acid + 5 mM ammonium formate, pH 3.61; gradient (min/%B) 0/1 1/1 2/39 13/99.9 15/99.9 15.1/1 20.1/1; conditions: stereoisomer not certain

Row | SMILES | LC retention time
1 | Cc1[nH]oc(=O)c1N=Nc1ccccc1Cl [Drazoxolon] | 10.3 min
2 | CC1COCc2cc3c(cc21)C(C)(C)C(C)C3(C)C (configuration not stated) [Galaxolide] | 13.9 min
3 | CCCCCn1cc(C(=O)c2cccc3ccccc23)cc1-c1ccccc1F [JWH-307] | 12.8 min
4 | O=S1(=O)OCC2C(CO1)C1(Cl)C(Cl)=C(Cl)C2(Cl)C1(Cl)Cl (configuration not stated) [Endosulfan-sulfate] | 11.1 min
5 | Fc1ccc(C2(Cn3cncn3)OC2c2ccccc2Cl)cc1 (configuration not stated) [Epoxiconazole] | 10.3 min
6 | CC(C)CC(C)Nc1ccc(Nc2ccccc2)cc1 (configuration not stated) [Diphenylamin-4-(dimethylbutylamino) (6PPD)] | 9.92 min
7 | Cc1c(F)c(F)c(COC(=O)C2C(C=C(Cl)C(F)(F)F)C2(C)C)c(F)c1F.Cc1c(F)c(F)c(COC(=O)C2C(C=C(Cl)C(F)(F)F)C2(C)C)c(F)c1F (configuration not stated) [Tefluthrin] | 13.4 min
8 | CC(=O)c1cc2cccc(OCC(O)CNC(C)C)c2o1 (configuration not stated) [Befunolol] | 4.93 min
9 | Cc1ccnc(NS(=O)(=O)c2ccc(N)cc2)n1 [Sulfamerazine] | 3.95 min
10 | CC(Cc1ccccc1)NCc1ccccc1Cl (configuration not stated) [Clobenzorex] | 6.82 min
11 | O=S(O)(O)=S [THJ] | 13.7 min
12 | CCCCCCCCSC(=O)Oc1cc(Cl)nnc1-c1ccccc1 [Pyridate] | 13.8 min
13 | CCCc1nn(C)c2c(=O)[nH]c(-c3cc(S(=O)(=O)N4CCN(CC)CC4)ccc3OCC)nc12 [HomoSildenafil] | 7.84 min
14 | CC1=C(C(=O)O)N2C(=O)C(NC(=O)C(N)c3ccccc3)C2SC1 (configuration not stated) [Cefalexin] | 4.08 min
15 | O=CNC(N1CCN(C(NC=O)C(Cl)(Cl)Cl)CC1)C(Cl)(Cl)Cl (configuration not stated) [Triforine] | 8.65 min
16 | Nc1nc(N)c2nc(-c3ccccc3)c(N)nc2n1 [Triamterene] | 4.68 min
17 | CCCCCCCCCCCC(=O)N(CCO)CCO [Lauryl diethanolamide] | 11.7 min
18 | CCCCSP(=O)(SCCCC)SCCCC [Tribufos (Merphos oxide. DEF)] | 13.4 min
19 | COC(=O)C(c1ccccc1)C1CCCCN1 (configuration not stated) [Methylphenidate] | 4.96 min
20 | Cc1ccc(NS(=O)(=O)N(C)C)cc1 [DMST (N.N-Dimethyl-N'-p-tolylsulphamide)] | 7.25 min
21 | NCCCCC(NC(CCc1ccccc1)C(=O)O)C(=O)N1CCCC1C(=O)O (configuration not stated) [Lisinopril] | 3.98 min

Row | SMILES | LC retention time
22 | Nc1ccc2c(c1)C(c1ccccc1)=NCC(=O)N2 [Nitrazepam- 7-Amino] | 4.78 min
23 | CCOC(=O)C(C)N(C(=O)c1ccccc1)c1ccc(Cl)c(Cl)c1 (configuration not stated) [Benzoylprop-ethyl] | 11 min
24 | CN1CCC23c4c5ccc(O)c4OC2CCCC3C1C5 (configuration not stated) [Desomorphine] | 3.84 min
25 | COc1ccc(C(=O)c2cn(CCCCC(=O)O)c3ccccc23)cc1 [RCS-4-M-5-COOH-Pentyl] | 8.81 min
26 | Nc1ccc(S(=O)(=O)Nc2ccc(Cl)nn2)cc1 [Sulfachloropyridazine] | 4.56 min
27 | CN1C(=O)C(O)N=C(c2ccccc2Cl)c2cc(Cl)ccc21 (configuration not stated) [Lormetazepam] | 8.61 min
28 | Cc1onc(-c2ccccc2)c1C(=O)NC1C(=O)N2C1SC(C)(C)C2C(=O)O (configuration not stated) [Oxacillin] | 6.9 min
29 | CC(=O)Oc1ccccc1C(=O)O [Acetylsalicylic acid_NH4 adduct] | 4.8 min
30 | CNC(=O)Oc1cccc2c1OC(C)(C)C2 [Carbofuran] | 7.01 min
31 | NC(Cc1cc(I)c(O)c(I)c1)C(=O)O (configuration not stated) [Tyrosine-3.5-Diiodo] | 4.77 min
32 | CC1(C)OCC2OC3(C(=O)O)OC(C)(C)OC3C2O1 (configuration not stated) [Dikegulac] | 4.76 min
33 | COC(=O)CCc1ccc(OCC(O)CNC(C)C)cc1 (configuration not stated) [Esmolol] | 5.18 min
34 | Cc1c(C=O)c(=O)n(-c2ccccc2)n1C [4-Formyl-antipyrine] | 3.98 min
35 | CCOP(=O)(OCC)SCSCC [Phorate-oxon] | 8.6 min
36 | CCN(CC)C(C)C(=O)c1ccccc1 (configuration not stated) [Amfepramone] | 4.11 min
37 | COc1cc(OC)nc(NC(=O)NS(=O)(=O)N(C)S(C)(=O)=O)n1 [Amidosulfuron] | 6.77 min
38 | O=C(NC12CC3CC(CC(C3)C1)C2)c1cn(CCCCCF)c2ccccc12 [STS-135] | 12.2 min
39 | CCOC(=O)COC(=O)c1cc(Oc2ccc(C(F)(F)F)cc2Cl)ccc1[N+](=O)[O-] [Fluoroglycofen-ethyl] | 11.7 min
40 | CCCCCCC(C)(C)c1ccc(C2CC(O)CCC2CCCO)c(O)c1 (configuration not stated) [CP 55-940] | 12 min
41 | CC(Cc1ccc(C(C)(C)C)cc1)CN1CCCCC1 (configuration not stated) [Fenpropidin] | 8.62 min
42 | CCCCOCCOCCOCc1cc2c(cc1CCC)OCO2 [Piperonyl butoxide] | 12.4 min

Row | SMILES | LC retention time
43 | CCC(c1cccc(O)c1)C(C)CN(C)C (configuration not stated) [Tapentadol] | 5.01 min
44 | CCOP(=O)(Sc1ccccc1)Sc1ccccc1 [Edifenphos] | 10.8 min
45 | COC(=O)c1ccccc1S(=O)(=O)NC(=O)Nc1nc(C)cc(C)n1 [Sulfometuron-methyl] | 6.92 min
46 | CCOP(=O)(SC(C)CC)SC(C)CC (configuration not stated) [Cadusafos] | 11.5 min
47 | NNC(N)=O [Semicarbazide (SEM)] | 1.33 min
48 | CCCCCCCCCC[N+](C)(C)CCCCCCCCCC [Didecyldimethylammonium (DADMAC (C10:C10))] | 12.6 min
49 | CC1CC2C3CC(F)C4=CC(=O)C=CC4(C)C3C(O)CC2(C)C1(O)C(=O)CO (configuration not stated) [Paramethasone] | 8.69 min
50 | CC(CCN1CCOCC1)OC(=O)C1(c2ccccc2)CCOCC1 (configuration not stated) [Fedrilate] | 6.12 min
51 | CN1CCN2c3ncc(O)cc3Cc3ccccc3C2C1 (configuration not stated) [Mirtazapine- 8-OH] | 4.54 min
52 | COc1ccc(CNC(=O)c2cc([N+](=O)[O-])ccc2NC(C)CO)cc1OC (configuration not stated) [Benzamidenafil] | 7.8 min
53 | CN1CCN=C(c2ccccc2)c2cc(Cl)ccc21 [Medazepam] | 10.2 min
54 | O=c1[nH]c2ccccc2n1CCN1CCN(c2cccc(C(F)(F)F)c2)CC1 [Flibanserin] | 9.99 min
55 | CC(C)(C)NCC(O)COc1cc(C(=O)O)ccc1Cl (configuration not stated) [Bupranolol- 5-Carboxy] | 5.01 min
56 | Nc1c([N+](=O)[O-])ccc(Oc2ccccc2)c1Cl [Aclonifen] | 10.9 min
57 | CNCCC(Oc1ccc(C(F)(F)F)cc1)c1ccccc1 (configuration not stated) [Fluoxetine] | 8.6 min
58 | CN(C)CCN(Cc1ccccc1)c1ccccn1 [Pyribenzamine (Tripelenamine. Azaron)] | 5.86 min
59 | CC[N+]([O-])(CC)CC(=O)Nc1c(C)cccc1C [Lidocaine-N-oxide] | 5.34 min
60 | Cc1ccc(-c2nc3ccc(C)cn3c2CC(=O)N(C)C)cc1 [Zolpidem] | 5.8 min
61 | CCCCCCOC(=O)NC(=N)c1ccc(NCc2nc3cc(C(=O)N(CCC(=O)OCC)c4ccccn4)ccc3n2C)cc1 [Dabigatran etexilate] | 9.29 min
62 | O=C(Nc1ccccc1-c1ccc(Cl)cc1)c1cccnc1Cl [Boscalid] | 9.4 min

Source: the RepoRT retention time repository (doi:10.1021/acs.analchem.2c02893)
